US8393321B2, “Drug delivery system for conscious sedation” (Piramal Critical Care, Inc., priority 2001, dated 2013)
Where two headings read alike, the source gives them in different places.

Columns and labels:
patients [1] = settings: in 100% oxygen for middle-aged men, cited from earlier work
patients [2] = assay: Conscious sedation (CS) level, MAC equivalent of 70% nitrous oxide; format: in vivo, human
Method: The concentration of oxygen in the atmosphere approximates 21%. […] The most common ratio is 70% N2O/30% oxygen, although some delivery systems maintain 50% oxygen.
The potency of anesthetic agents is measured by the minimum alveolar concentration of an anesthetic producing immobility in 50% of patients, defined as 39 year old males, undergoing surgical incision (“MAC”). […] In present inhalant conscious sedation systems, nitrous oxide is delivered in conjunction with a minimum of 30% oxygen to insure the patient maintains a sufficient level of oxygen. […] For this description a MAC equivalent of 70% nitrous oxide will be used for comparison with other inhalants, as shown in Table 2.

[3] = soda lime (calcium hydroxide) and/or UV light; cited from earlier work
patient = settings: conscious sedation; cited from earlier work
patients [4] = settings: N2O with oxygen; cited from earlier work

| Compound | MAC (patients [1]) [%] | Implied CS Level (patients [2]; in vivo) [%] | decomposition in presence of soda lime and/or UV light [3] | Abuse Potential (patient) | Safety Profile (patient) | further results |
| --- | --- | --- | --- | --- | --- | --- |
| FC(F)OC(F)C(F)(F)F (stereo not shown) [Desflurane] | 6.00 | 3.82 | – | – | – | – |
| FC(F)OC(F)(F)C(F)Cl (stereo not shown) [Enflurane] | 1.68 | 1.07 | – | – | – | – |
| FC(F)(F)C(Cl)Br (stereo not shown) [Halothane] | 0.75 | 0.48 | decompose | – | – | – |
| CN1C(=O)CN=C(c2ccccc2)c2cc(Cl)ccc21 [IV Diazepam, Diazepam] | – | – | – | Controlled | Moderate | – |
| Cc1ncc2n1-c1ccc(Cl)cc1C(c1ccccc1F)=NC2 [IV Midazolam, Midazolam] | – | – | – | Controlled | Moderate | – |
| FC(F)OC(Cl)C(F)(F)F (stereo not shown) [Isoflurane] | 1.15 | 0.73 | – | – | – | – |
| COC(F)(F)C(Cl)Cl [Methoxyflurane] | 0.16 | – | decompose | – | – | MAC (patients [1]; listed as methoxyflurane): 0.16%; Implied CS Level (patients [2]; MAC equivalent of 70% nitrous oxide (.636)): 0.11% |
| [N-]=[N+]=O [Nitrous Oxide] | 110.00 | 70.00 | – | Recre- | Teratogenic | MAC (patients [1]; listed as nitrous oxide): 110%; MAC Equivalent (patients [2]; in vivo): .636; Minimum Alveolar Content (MAC) of 70% N2O/30% oxygen mixture (patients [2]; in vivo): 0.636 MAC; mixture concentration at which conscious sedation occurs in most patients (patients [4]): 70% |
| FCOC(C(F)(F)F)C(F)(F)F [Sevoflurane] | 2.00 | 1.27 | decompose | – | – | – |
